Test results: patent EP0617968B1, “HIV protease inhibitors in pharmaceutical combinations for the treatment of AIDS” (Merck & Co., Inc., priority 1993, dated 1994)

Target: T1, HIV protease (Human immunodeficiency virus type 1 group M subtype B, UniProt P04585)
T1 construct: made in house; host or cells: Escherichia coli
Assay: biochemical
Conditions: protease expressed in Eschericia coli; peptide substrate 0.5 mg/mL; 50 mM Na acetate, pH 5.5, 30°C, 1 hour
Method: Assay for Inhibition of Microbial Expressed HIV Protease
Inhibition studies of the reaction of the protease expressed in Eschericia coli with a peptide substrate [Val-Ser-Gln-Asn-(betanapthyl)Ala-Pro-Ile-Val, 0.5 mg/mL at the time the reaction is initiated] were in 50 mM Na acetate, pH 5.5, at 30°C for 1 hour. Various concentrations of inhibitor in 1.0 ul DMSO were added to 25 ul of the peptide solution in water. The reaction is initiated by the addition of 15 ul of 0.33 nM protease (0.11 ng) in a solution of 0.133 M Na acetate pH 5.5 and 0.1% bovine serum albumin. The reaction was quenched with 160 ul of 5% phosphoric acid. Products of the reaction were separated by HPLC (VYDAC wide pore 5 cm C-18 reverse phase, acetonitrile gradient, 0.1 % phosphoric acid). The extent of inhibition of the reaction was determined from the peak heights of the products.

Row | Structure (SMILES) | IC50
1 | CC(C)(C)NC(=O)[C@@H]1C[C@@H]2CCCC[C@@H]2CN1C[C@@H](O)C[C@@H](Cc1ccccc1)C(=O)N[C@H]1c2ccccc2C[C@H]1O [A, N-(2(R)-hydroxy-1(S)-indanyl)-2(R)-phenylmethyl-4(S)-hydroxy-5-(2-(3(S)-N'-(t-butylcarbamoyl)-(4aS,8aS)-decahydroisoquinoline)yl)-pentaneamide] | 0.3 to 6 nM
2 | CC(C)(C)NC(=O)[C@@H]1CN(C(=O)OCc2ccccc2)CCN1C[C@@H](O)C[C@@H](Cc1ccccc1)C(=O)N[C@H]1c2ccccc2C[C@H]1O [B, N-(2(R)-hydroxy-1(S)-indanyl)-2(R)-phenylmethyl-4(S)-hydroxy-5-(1-(4-carbobenzyloxy-2(S)-N'-(t-butylcarbamoyl)-piperazinyl))-pentaneamide] | 0.3 to 6 nM
